According to patent EP4542231A1, “METHODS FOR IDENTIFYING AND STRATIFYING CANCERS AND CANCER PATIENTS BASED ON P2X4 RECEPTOR EXPRESSION” (Johann-Wolfgang-Goethe-Universität Frankfurt am Main, priority 2023, dated 2025):

Assays:
SU-DHL5 lymphoma cells = experiment: Survival of SU-DHL5 cells in response to doxorubicin in the absence or presence of 5-BDBD; type: cell-based; details: lymphoma cells that do not express P2X4 protein; doxorubicin +/- 5-BDBD (Fig. 3B)
Excerpt: (§1) Survival of SU-DHL5 cells in response to doxorubicin in the absence or presence of 5-BDBD (B). Survival of human CRC tumor organoids in response to 5-FU in the absence or presence of 5-BDBD (C).
(§2) The inventors had previously shown that blocking P2X4 would sensitize organoids to 5-FU treatment (Schmitt et al, Nature, 2022). The inventors now confirmed that these organoids indeed express P2X4 (Fig. 3A, CRC-organoid #1).

[1] = test system: human CRC tumor organoids; details: organoids that express P2X4 (CRC-organoid #1); previously shown, Schmitt et al, Nature, 2022; cited from earlier work
[2] = test system: human CRC tumor organoids; experiment: Survival of human CRC tumor organoids in response to 5-FU in the absence or presence of 5-BDBD; type: cell-based; details: colorectal cancer organoids that do not express P2X4 protein; 5-FU +/- P2X4 inhibitor (Fig. 3C)
Excerpt: as §1, §2

[3] = test system: ATP-induced S6 phosphorylation in PDTOs; details: selective P2X4, P2X1 or P2X7 inhibition; cited from earlier work

| SMILES | sensitization towards P2X4 inhibition (SU-DHL5 lymphoma cells) | sensitization of organoids to 5-FU treatment [1] | sensitization towards P2X4 inhibition [2] | ATP-induced S6 phosphorylation [3] |
| --- | --- | --- | --- | --- |
| O=C1CN=C(c2cccc(Br)c2)c2oc3ccccc3c2N1 [5-BDBD, 5-(3-Bromophenyl)-1,3-dihydro-2H-Benzofuro[3,2-e]-1,4-diazepin-2-one] | no sensitization | sensitize | no sensitization | reduced |
| Clc1cccc(-c2nnnn2Cc2cccnc2)c1Cl [A-438079] | – | – | – | no effect |
| O=C(Nc1ccc(C(=O)Nc2ccc(C(=O)Nc3ccc(S(=O)(=O)O)c4cc(S(=O)(=O)O)cc(S(=O)(=O)O)c34)cc2)cc1)Nc1ccc(C(=O)Nc2ccc(C(=O)Nc3ccc(S(=O)(=O)O)c4cc(S(=O)(=O)O)cc(S(=O)(=O)O)c34)cc2)cc1 [NF279] | – | – | – | no effect |
